Source: US7566553B2, “Microorganism of Escherichia Sp, or Corynebacterium Sp, comprising foreign NADP dependent glyceraldehyde-3-phosphate dehydrogenase gene and method for producing L-lysine using the same” (CJ Corporation, priority 2004, dated 2009)

Assays:
Experiment in all cases: Resistance against lysine analogue AEC, relative growth rate in M9 minimum medium
Assay type in all cases: cell-based, Escherichia coli
E. coli strain CJ40225 = conditions: absorbance at 562 nm, relative to growth at zero AEC
Protocol: (§1) An Escherichia coli strain TF1 (Korean laid-open Patent No. 1992-0012444) was grown until the strain entered an exponential growth phase and suspended in a 0.1M phosphate buffer (pH 7.0) or 0.1M citrate buffer solution (pH 5.5). N-methyl-N′-nitro-nitrosoguanidine was added into the suspension to a final concentration of 200-500 μg/mL, reacted at 30° C. for 10-30 minutes, and inoculated into a minimum agar plate containing 1-30 g/L of a lysine analogue (AEC: S-(2-aminoethyl)-L-cysteine) to select an analogue-resistant strain. This strain was named “CJ40225”. The resistance of the strain against the lysine analogue was tested using an M9 minimum medium, and the relative growth rate was measured.
(§2) The used M9 minimum medium contained 4 g of glucose, 12.8 g of Na2HPO4.7H2O, 3 g of KH2PO4, 0.5 g of NaCl, and 1 g of NH4Cl per 1 liter of water.

E. coli strain TF1 = conditions: strain TE1 (so in the source), absorbance at 562 nm, relative to growth at zero AEC
Protocol: as §1, §2

[1] = tested on: Wild type E. coli strain W3110; conditions: absorbance at 562 nm, relative to growth at zero AEC
Protocol: as §1, §2

With NCCSC[C@H](N)C(=O)O [AEC, S-(2-aminoethyl)-L-cysteine] the “Relative Growth Rate (%)” value (E. coli strain CJ40225; added AEC 5 g/L) was 124.3%, the “Relative Growth Rate (%)” value (E. coli strain CJ40225; added AEC 10 g/L) was 88.4% and the “Relative Growth Rate (%)” value (E. coli strain CJ40225; added AEC 20 g/L) was 89.2%. The “Relative Growth Rate (%)” value (E. coli strain CJ40225; added AEC 40 g/L) was 73.9%, the “Relative Growth Rate (%)” value (E. coli strain TF1; added AEC 5 g/L) was 103.5% and the “Relative Growth Rate (%)” value (E. coli strain TF1; added AEC 10 g/L) was 128.9%. For the same molecule, the “Relative Growth Rate (%)” value (E. coli strain TF1; added AEC 20 g/L) was 112.5%, the “Relative Growth Rate (%)” value (E. coli strain TF1; added AEC 40 g/L) was 17.5% and the “Relative Growth Rate (%)” value ([1]; added AEC 5 g/L) was 66.3%. The “Relative Growth Rate (%)” value ([1]; added AEC 10 g/L) was 39.8% and the “Relative Growth Rate (%)” value ([1]; added AEC 20 g/L) was 7.4%.
